According to patent publication US10399931B2, “Octahydroanthracene compound, preparation method and application thereof” (SHANDONG XINHUA PHARMACEUTICAL CO., LTD., priority 2016, dated 2019):

What was measured:
[1] = test system: Human leukemia HL60 cells; test: MTT assay, proliferation of human leukemia HL60 cells; type: cell-based; conditions: Homo sapiens, HL-60, 48 h, 10 μM, 48 h, Mean ± SE; read-out: Inhibitive rate (%) against HL60 cells
Protocol: The survival rate of cells was determined by MTT assay, which is based on the metabolic reduction of 3-(4,5-dimethyl-2thiahiazoyl)-3,5-di-phenyl-tetrazolium bromide (MTT) by viable cells. MTT is a yellow compound, a dye that accepts hydrogen ion, which can act on the respiratory chain in the mitochondria of viable cells. Under the action of succinate dehydrogenase and cytochrome C, the tetrazolium ring was cleaved to form blue Formazan crystals, and the amount of Formazan crystals generated was only proportional to the number of the viable cells. The enzymes disappeared in dead cells, so Formazan crystals could not be dissolved in MTT solution containing 20% sodium dodecyl sulfate (pH 4.7).
The cells in the logarithmic growth phase were selected and adjusted to an appropriate cell density, seeded in a 96-well plate, 100 μl/well, and cultured in a 37° C., 5% CO2 incubator. The cells were allowed to adhere overnight, then the culture medium was replaced and the drug was added to cultivate for 48 h. A blank control group, a drug administration group and a positive control group were set, with four repeats in each group.
After 48 h of drug treatment, the cells were incubated with 0.25 mg/ml MTT at 37° C. for 3-4 h, and 100 μl of dimethyl sulfoxide (DMSO) was added to each well after aspirating the culture solution.

[2] = test system: APP/PS1 double transgenic AD model mice; test: β-amyloid deposition in cerebral cortex and hippocampus of APP/PS1 mice; type: in vivo
Protocol: The drugs were administered three days after the adaptive feeding. Peanut oil was used as the solvent. […] On the 6th to 9th day after the administration, the new object identification test was performed. On the 10th day, the Y-maze test was performed. On the 11th to 15th day, the Morris water maze test was performed to determine the improvement of learning and memory. The administration of the drugs was continued during the behavioral experiment until the animals were sacrificed (16th day).
After the behavioral experiment, the mice were anesthetized with an intraperitoneal injection of 3.5% chloral hydrate 3.5% (about […] for each mouse). Then the back of the mouse was fixed on the operating table and the chest was open to expose the heart. A perfusion needle was inserted into the left ventricle from the apex of the heart, while the right atrial appendage cut a small opening. First, perfusion was performed with about 200 ml saline. When the tail of the mouse was cut to find no blood, 300 ml 4% paraformaldehyde buffer (0.1 mol/L) at 4° C. was used to perfuse until the body of the mouse was stiff. The mouse was then decapitated, and the whole brain was obtained and fixed in 4% paraformaldehyde at 4° C. After 24 h, the brain was embedded in conventional paraffin and coronally sectioned to obtain the tissue sections with a thickness of 5 μm for immunohistochemical staining. […]

[3] = test system: Aβ metabolizing enzymes NEP and IDE; test: Expression of Aβ metabolizing enzymes in the brain of APP/PS1 mice; type: in vivo
Protocol: After the behavioral experiment, the animals were anesthetized with an intraperitoneal injection of 3.5% chloral hydrate and cut off the heads quickly to take out the brains. The hippocampus and cortex of the brain were separated on ice, and then weighed and quickly frozen with liquid nitrogen, placed in a refrigerator at −80° C. for standby application.
The tissue lysate (5 μL PMSF protease inhibitor per mL of lysate) was added to the frozen brain tissue at a ratio of […] (6 mL/g tissue), and ultrasonically homogenized in an ice bath. After homogenization, the tissue homogenate was placed in crushed ice for 30 min, and then centrifuged at 12,000×g for 20 min at 4° C. The supernatant (about 200 μL) was taken and stored in a refrigerator at −80° C. for later use. A portion of the supernatant was taken for protein quantification.
Grayscale scanning of the X film was performed and the results were analyzed by the image analysis software of Quantity One 4.6.2. Differences and changes in the expression of the detected proteins between the groups were determined using β-actin as an internal reference. The relative value was calculated by the formula.

APP/PS1 mice = test: Patch clamp experiment, LTP (synaptic function); type: in vivo

For `CC1(C)CCC(C)(C)c2c1cc1c(c2NC(=O)c2ccc(NC(=O)NCCN)cc2)C(C)(C)CCC1(C)C` [OAB-14, 1-(2-amino) ethyl-3-{4-[(1,1,4,4,5,5,8,8-octamethyl-1,2,3,4,5,6,7,8-octahydro-9-anthryl)carbamoyl]phenyl} urea], the inhibition at 10 µM [1] was 24.3 ± 3.18%, the “Reduction of the deposition of β-amyloid protein in cerebral cortex and hippocampus” value ([2]; 200 mg/kg, continuous intragastric administration 14 days, 8-month-old APP/PS1 mice) was 67.4% and the “Dose-effect relationship of the reduction of β-amyloid deposition” value ([2]; dose range 50-200 mg/kg, intragastric, 14 days) was “good dose-effect relationship”. The “Expression of Aβ metabolizing enzymes NEP and IDE in the brain” value [3] was “increasing the expression”, the LTP (APP/PS1 mice; 100 mg/kg group) was “significantly enhanced” and the LTP (APP/PS1 mice; 200 mg/kg group) was “significantly enhanced”.
